This is an account of results in patent US9816991B2, “Diagnostic peptides for lyme disease” (Biopeptides Corp., priority 2012, dated 2017).

This assay deals with human IgG+IgM serum antibodies. As to the kind of experiment: OppA2 peptide ELISA. It is filed as binding. The conditions noted are these: for binding of antibodies present in RPR+ serum: 26 RPR+ sera. As for the experimental part:
96-well plates (Nunc Maxisorp) were coated with 10 μg/mL peptide, diluted in 0.1M carbonate-bicarbonate buffer, pH 9.4 (50 μL per well), for 1 hour at room temperature. Blocking buffer 1% bovine serum albumin (BSA) in PBS was added to the wells (250 μL/well) and incubated overnight at 4° C. Wells were washed three times with PBS containing 0.05% Tween 20 (PBS-T) and incubated for 2 hours at room temperature with human samples diluted 1:100 in PBS-1% BSA. Each plate included samples from patients and healthy donors, and all samples were assayed in triplicate. After washing, wells were incubated for 1 hour at RT with a 1:15,000 dilution of HRP-conjugated secondary antibody against human IgG+IgM. Reactions were developed for 30 minutes with 3,3′,5,5′-tetramethylbenzidine (TMB) in the dark at room temperature and the reaction was stopped by the addition of 2N H2SO4. Optical densities were determined at 450 nm and 570 nm wavelengths using a SpectraMax Plus plate reader (Molecular Devices). The cutoff for seropositivity was defined as the mean optical density (OD) of the healthy control samples plus two standard deviations (SD).
OppA2 peptides react specifically with antibodies from Lyme disease patients. The nine peptides were further screened by ELISA using serum or plasma obtained from 104 patients with physician-diagnosed Lyme disease. All patients presented with one or more EM. Control sera was obtained from 45 healthy donors residing in a region of the United States non-endemic for LD, New Mexico. All peptides were incubated with serum in triplicate, and results were validated in two independent experiments. For each peptide, the threshold value for immunoreactivity was defined as the mean optical density (OD) value plus two standard deviations (SD) of results obtained using healthy donor sera. […] OppA2 (191-225) and OppA2 (381-400) were detected by only 2.2% and 6.7%, respectively, of the healthy donor samples.

[1] abbreviates: Control sera, Healthy blood donors.
Setting [2] is: Lyme Disease sera, Blood culture negative (localized).
The mark [3] stands for this setting: Lyme Disease sera, Blood culture positive (disseminated).
Setting [4] is: Lyme Disease sera, EM positive (1st visit).
Where [5] appears, read: Lyme Disease sera, Elisa Positive.

Consider “APIYIYGNSYLFRND (listed as Borrelia burgdorferi) [OppA2 (495-505)]”, for which the “reactivity of Lyme disease patient sera compared with sera from healthy donors” value (in words) is on record as “comparable to that of sera from healthy donors”.
As for “IYFYSFNTHIKPLDNVKIRKALTLA (listed as Borrelia sp.) [OppA (286-310)]”, the “binding of antibodies present in RPR+ serum” value (in words) is listed as “did not bind”. For the same sequence, the “Antibody positivity, % positive” value by setting is: under setting [1], 4.4%; (Control sera, RA) 0%; (Control sera, Syphilis (RPR+)) 0%; under setting [2], 0%; under setting [3], 0%; under setting [4], “(43.6) %”. Besides, the “Antibody positivity, % positive” value runs as follows: (Lyme Disease sera, EM positive (1st visit), listed as OppA2 (286-310)) 43.6%; under setting [5], “(22.9) %”; (Lyme Disease sera, Wisconsin) “(78.3) %”. Also, the “Antibody positivity, N° positive/Total” value is, setting by setting: under setting [1], 2/45; (Control sera, RA) 0/30; (Control sera, Syphilis (RPR+)) 0/26; under setting [2], 0/13; under setting [3], 0/10; under setting [4], 44/104. For the same sequence, the “Antibody positivity, N° positive/Total” value by setting is: under setting [5], 8/35; (Lyme Disease sera, Wisconsin) 36/46.
Take “SDYYSSAVNAIYFYAFNTHIKPLDN (listed as Borrelia sp.) [OppA (276-300)]”: where the note is “in words”, the “binding of antibodies present in RPR+ serum” value is listed as “did not bind”. In addition, the “Antibody positivity, % positive” value under setting [1] is 4.4%; the “Antibody positivity, % positive” value (Control sera, RA) was determined as 0%; the “Antibody positivity, % positive” value (Control sera, Syphilis (RPR+)) was 0%; the “Antibody positivity, % positive” value under setting [2] is reported as 0%; the “Antibody positivity, % positive” value under setting [3] stood at 0%; the “Antibody positivity, % positive” value under setting [4] is recorded as “(36.6) %”. In addition, the “Antibody positivity, % positive” value is, setting by setting: (Lyme Disease sera, EM positive (1st visit), listed as OppA2 (276-300)) 36.6%; under setting [5], “(22.9) %”; (Lyme Disease sera, Wisconsin) “(56.5) %”. The “Antibody positivity, N° positive/Total” value reads like this: under setting [1], 2/45; (Control sera, RA) 0/30; (Control sera, Syphilis (RPR+)) 0/26; under setting [2], 0/13; under setting [3], 0/10; under setting [4], 34/104. Further, the “Antibody positivity, N° positive/Total” value under setting [5] is 8/35 and the “Antibody positivity, N° positive/Total” value (Lyme Disease sera, Wisconsin) is given as 26/46.
